Data from article PMC10049421, “Anticancer Activity of Sunitinib Analogues in Human Pancreatic Cancer Cell Cultures under Normoxia and Hypoxia” (International Journal of Molecular Sciences, 2023).

Columns and labels:
[1] = tested on: PANC-1 cells; settings: cited from earlier work
[2] = tested on: BxPC-3 cell line; settings: BxPC-3, concentration-dependent; cited from earlier work
[3] = tested on: Capan-2 cell line; settings: Capan-2, concentration-dependent; cited from earlier work
[4] = tested on: MIA PaCa-2 cells; assay: MTT cell viability assay, MIA PaCa-2; format: cell-based, human; settings: for EC50: Homo sapiens, MIA PaCa-2, 72 h, 72 h, MTT
Method: (§1) Cell viability was tested using MTT (3-(4,5-dimethylthiazol-2-yl)-2,5-diphenyltetrazolium bromide; Sigma-Aldrich Co.) assay, as described previously Briefly, MIA PaCa-2 and PANC-1 cells were seeded in 96-well plates (Corning, NY, USA) in a volume of 100 μL (4000 cells/well). After 24 h incubation, the cells were treated with sunitinib and its derivatives. Only the medium without cells was used as a positive control, and the medium with 0.5% DMSO (Sigma-Aldrich Co.) served as a negative control. After 72 h the cells were incubated with the 0.5 mg/mL of MTT solution for the next 4 h. The coloured formazan product was dissolved in 100 μL DMSO. The absorbance was measured spectrophotometrically at wavelengths 570 and 630 nm. […] When determining the EC50 values of the compounds under hypoxic conditions, the growth medium was supplemented with 100 µM of CoCl2 solution (97%, Alfa Aesar, MA, USA).

[5] = tested on: PANC-1 cells; assay: MTT cell viability assay, PANC-1; format: cell-based, human; settings: for EC50: Homo sapiens, PANC-1, 72 h, 72 h, MTT
Method: as §1

[6] = tested on: human fibroblasts; assay: MTT cell viability, human fibroblasts (selectivity); format: cell-based
[7] = tested on: MIA PaCa-2 and PANC-1 cells; assay: MTT cell viability, both pancreatic cancer cell lines; format: cell-based, human; settings: for reduction of viability compared to sunitinib / reduction of cell viability: 1 µM; for reduction of viability compared to sunitinib: 72 h, both cancer cell lines; for reduction of cell viability: 72 h of incubation, at least one cell line; for activity on cell viability, comparison between cell lines: EC50 comparison MIA PaCa-2 vs PANC-1; for activity on cell viability, hypoxia compared with normoxia: EC50 comparison
Method: as §1

[8] = tested on: MIA PaCa-2 cells; assay: Clonogenic assay, MIA PaCa-2; format: cell-based, human; settings: for number and area of colonies: MIA PaCa-2, higher concentration (90% of EC50), normoxia and hypoxia
Method: (§2) Compound effect on cell colony formation and growth was established by clonogenic assay, as previously published. […] Cells were incubated in a humidified atmosphere containing 5% CO2 at 37 °C and grown for 8 days. After incubation, the cells were rinsed with PBS and fixed with 10% formaldehyde, methanol-free (ThermoFisher Scientific, Waltham, MA, USA) solution for 20 min. Then the cells were rinsed with PBS two more times, and cell colonies were stained with 0.1% aqueous crystal violet solution (Sigma-Aldrich Co.) for 20 min, followed by rinses with sterile deionized water to remove the excess dye. Photos of colonies were taken using the G:BOX gel documentation system (Syngene International Ltd., Bengaluru, India) and Genesys software (Syngene International Ltd.). The number of colonies and their area were calculated using GeneTools colony and cell counting software (Syngene International Ltd.) according to the manufacturer’s instructions. Cell colony area and number in control groups were normalized to 100%. The percentage of drug-treated colony area and number were compared to the control.

[9] = tested on: PANC-1 cells; assay: Clonogenic assay, PANC-1; format: cell-based, human; settings: for PANC-1 cell colony formation (number) compared to the control: 90% of EC50, normoxia; for number and area of colonies: PANC-1, higher concentration (90% of EC50), normoxia and hypoxia
Method: as §2

[10] = tested on: MIA PaCa-2 cells; assay: 'Wound healing' migration assay, MIA PaCa-2; format: cell-based, human; settings: for inhibition of migration, hypoxia compared with normoxia: MIA PaCa-2
Method: (§3) Cell migration was tested by the ‘wound’ healing assay, as described elsewhere. Briefly, MIA PaCa-2 and PANC-1 cells were seeded into 24-well plates (Corning). MIA PaCa-2 at a density of 80,000 cells/well and PANC-1 at a density of 60,000 cells/well in 500 μL of medium and incubated in a humidified atmosphere containing 5% CO2 at 37 °C for 1 day. Then the monolayers were scratched with a sterile 100 μL pipette plastic tip in the centre of the well. The old cell medium is aspirated, the wells are rinsed with 400 μL phosphate-buffered saline (PBS, Gibco). […] Photos of ‘wounds’ were taken every 24 h for 3 days and the compound effect was evaluated by measuring the size of the “wound” area. Images were analysed by TScratch software (CSE Lab, Zurich, Switzerland).

[11] = tested on: PANC-1 cells; assay: 'Wound healing' migration assay, PANC-1; format: cell-based, human; settings: for inhibition of migration, hypoxia compared with normoxia: PANC-1; for 'wound' area compared to the control: PANC-1, 0.35 μM
Method: as §3

[12] = tested on: PANC-1 cells; set-up: method as in PMID 15202007; settings: 10 μM; cited from earlier work
[13] = tested on: PANC-1 cell monolayer; settings: PANC-1, 1 μM, 24 h; cited from earlier work
[14] = MIA PaCa-2, hypoxia (100 µM CoCl2)
[15] = normoxia, higher concentrations (90% of EC50)

CN(C)C/C=C/C(=O)Nc1cc2c(Nc3ccc(F)c(Cl)c3)ncnc2cc1O[C@H]1CCOC1 [Afatinib]
cell colony formation ([1]; PANC-1, 0.25 to 2 μM): did not show an effect
cell colony formation [2]: inhibited cell colony formation
cell colony formation [3]: inhibited cell colony formation

Cc1nc(Nc2ncc(C(=O)Nc3c(C)cccc3Cl)s2)cc(N2CCN(CCO)CC2)n1 [Dasatinib]
number of PANC-1 cell colonies ([1]; 10 μM): significantly reduced

COc1ccc(C2CC(c3ccc4ccccc4c3)=NN2C2=NC(=O)/C(=C3/C(=O)Nc4ccc(Cl)cc43)S2)cc1 (stereo not drawn) [EMAC4001]
EC50 [4, 14]: 100 ± 13 nM
EC50 ([4]; MIA PaCa-2, normoxia): 113 ± 8 nM
times more active than sunitinib ([4]; MIA PaCa-2, hypoxia): 35 times
times more active than sunitinib ([4]; MIA PaCa-2, normoxia): 24 times
EC50 ([5]; PANC-1, hypoxia (100 µM CoCl2)): 80 ± 5 nM
EC50 ([5]; PANC-1, normoxia): 98 ± 3 nM
times more active than sunitinib ([5]; PANC-1, hypoxia): 47 times
times more active than sunitinib ([5]; PANC-1, normoxia): 36 times
selectivity towards cancer cells compared to human fibroblasts ([6]; MIA PaCa-2 and PANC-1 vs fibroblasts): most selective compound
reduction of viability compared to sunitinib [7]: statistically significantly stronger reduced
reduction of cell viability [7]: 90%
activity on cell viability, comparison between cell lines [7]: more active in the PANC-1 cell line
MIA PaCa-2 cell colony growth, hypoxia compared with normoxia [8]: stronger effect on the MIA PaCa-2 cell colony growth under hypoxia than normoxia
MIA PaCa-2 cell colony formation ([8]; 90% of EC50, normoxia): statistically significantly inhibited
number and size of cell colonies compared to sunitinib ([8]; MIA PaCa-2, 90% of EC50, normoxia and hypoxia): less of MIA PaCa-2 and PANC-1 cell colonies and they were smaller
number and area of colonies [8]: significantly reduced the number and area of colonies
PANC-1 cell colony formation (number) compared to the control [9]: inhibited the colony formation of PANC-1 cells
number and size of cell colonies compared to sunitinib ([9]; PANC-1, 90% of EC50, normoxia and hypoxia): less of MIA PaCa-2 and PANC-1 cell colonies and they were smaller
number and area of colonies [9]: significantly reduced the number and area of colonies
inhibition of migration, hypoxia compared with normoxia [10]: more than in normoxia
cell migration [10, 15]: inhibited cell migration
inhibition of migration, hypoxia compared with normoxia [11]: the effect was the opposite

COc1ccc(C2CC(c3ccc4ccccc4c3)=NN2C2=NC(=O)/C(=C3/C(=O)Nc4ccc(I)cc43)S2)cc1 (stereo not drawn) [EMAC4006]
reduction of viability compared to sunitinib [7]: statistically significantly stronger reduced
reduction of cell viability [7]: 90%
activity on cell viability, comparison between cell lines [7]: inhibited more efficiently the cell viability of the MIA PaCa-2 cell line
MIA PaCa-2 cell colony formation ([8]; 90% of EC50, normoxia): statistically significantly inhibited
PANC-1 cell colony formation (number) compared to the control [9]: inhibited the colony formation of PANC-1 cells
inhibition of migration, hypoxia compared with normoxia [10]: less than under normoxia
cell migration [10, 15]: inhibited cell migration
inhibition of migration, hypoxia compared with normoxia [11]: stronger under hypoxia than normoxia

COc1ccc(C2CC(c3ccc4ccccc4c3)=NN2C2=NC(=O)/C(=C3/C(=O)Nc4ccc(OC)cc43)S2)cc1 (stereo not drawn) [EMAC4007]
effect on viability of non-cancerous cells (human fibroblasts) [6]: significantly reduce the viability of non-cancerous cells
reduction of viability compared to sunitinib [7]: statistically significantly stronger reduced
reduction of cell viability [7]: 90%

COc1ccc(C2CC(c3ccc4ccccc4c3)=NN2C2=NC(=O)/C(=C3/C(=O)Nc4ccc(C)cc43)S2)cc1 (stereo not drawn) [EMAC4008]
reduction of viability compared to sunitinib [7]: statistically significantly stronger reduced
reduction of cell viability [7]: 90%
activity on cell viability, hypoxia compared with normoxia [7]: more active against both cell lines under hypoxia conditions
activity on cell viability, comparison between cell lines [7]: more active in the PANC-1 cell line
MIA PaCa-2 cell colony growth, hypoxia compared with normoxia [8]: stronger effect on the MIA PaCa-2 cell colony growth under hypoxia than normoxia
inhibition of migration, hypoxia compared with normoxia [11]: stronger under hypoxia than normoxia

COc1ccc(C2CC(c3ccc4ccccc4c3)=NN2C2=NC(=O)/C(=C3/C(=O)Nc4ccc(C(F)(F)F)cc43)S2)cc1 (stereo not drawn) [EMAC4009]
effect on viability of non-cancerous cells (human fibroblasts) [6]: significantly reduce the viability of non-cancerous cells
reduction of viability compared to sunitinib [7]: statistically significantly stronger reduced
reduction of cell viability [7]: 90%

COc1ccc(C2CC(c3cccs3)=NN2C2=NC(=O)/C(=C3/C(=O)Nc4ccc(I)cc43)S2)cc1 (stereo not drawn) [EMAC4017]
reduction of viability compared to sunitinib [7]: statistically significantly stronger reduced
reduction of cell viability [7]: 90%
MIA PaCa-2 cell colony growth, hypoxia compared with normoxia [8]: stronger effect on the MIA PaCa-2 cell colony growth under hypoxia than normoxia
MIA PaCa-2 cell colony formation ([8]; hypoxia): significantly reduced the MIA PaCa-2 cell colony formation
MIA PaCa-2 colony number compared to sunitinib ([8]; lower concentration (10% of EC50), hypoxia): stronger than sunitinib
inhibition of migration, hypoxia compared with normoxia [10]: less than under normoxia
inhibition of migration, hypoxia compared with normoxia [11]: stronger under hypoxia than normoxia

COc1cc2ncnc(Nc3ccc(F)c(Cl)c3)c2cc1OCCCN1CCOCC1 [Gefitinib]
reduction of viability of PANC-1 cells [12]: 78%

CCN(CC)CCNC(=O)c1c(C)[nH]c(/C=C2\C(=O)Nc3ccc(F)cc32)c1C [sunitinib, Sunitinib malate]
EC50 [4, 14]: 3500 ± 300 nM
EC50 ([4]; MIA PaCa-2, normoxia): 2670 ± 210 nM
decrease of PANC-1 cell viability ([5]; 3.5 μM): up to 50%
EC50 ([5]; PANC-1, hypoxia (100 µM CoCl2)): 3730 ± 210 nM
EC50 ([5]; PANC-1, normoxia): 3530 ± 210 nM
activity on cell viability, hypoxia compared with normoxia [7]: more active under normoxia than hypoxia conditions
activity on cell viability, comparison between cell lines [7]: inhibited more efficiently the cell viability of the MIA PaCa-2 cell line
MIA PaCa-2 cell colony formation ([8]; 90% of EC50, normoxia): statistically significantly inhibited
number and area of colonies [8]: significantly reduced the number and area of colonies
number and area of colonies [9]: significantly reduced the number and area of colonies
inhibition of migration, hypoxia compared with normoxia [10]: more under hypoxic conditions
cell migration ([10]; MIA PaCa-2, 10 and 90% of EC50, normoxia and hypoxia (except lower concentration under normoxia)): statistically significantly inhibited cell migration
inhibition of migration, hypoxia compared with normoxia [11]: more under hypoxic conditions
'wound' area compared to the control ([11]; 24 h): no difference
'wound' area compared to the control ([11]; 48 h and 72 h): significantly larger
cell migration ([11]; PANC-1, 10 and 90% of EC50, normoxia and hypoxia): statistically significantly inhibited cell migration
'wound' area ([11]; PANC-1 monolayer, hypoxia, after 72 h): 68.81 ± 5.24%
change in 'wound' area compared to the control [13]: did not establish a significant difference
